US20060229322A1, “Anhydrous crystalline form of valacyclovir hydrochloride” (priority 2002, published 2006)
Counter-ions that a name gives are not always drawn.

Experiments:
[1] = Storage stability of the anhydrous crystalline form at room temperature; type: physicochemical
Description: (§1) Such stability is vital for a pharmaceutical since stocks thereof may be stored for long periods prior to use. […] The forms of the invention are therefore suitable for transport in countries where ambient temperatures are exceptionally high.

[2] = type: physicochemical
Description: as §1

CC(C)[C@H](N)C(=O)OCCOCn1cnc2c(=O)[nH]c(N)nc21 [valacyclovir hydrochloride]
time shown to be stable [1]: over 3 years | time for which stability is exhibited when heated [2]: over 550 hours
